# Laboratory results: article PMC3726261 (Cancer, 2012)
# Entries after “also recorded” stand apart in the source; their conditions may differ. Marks after values point to notes of the source that are not given here.
# Test system: patients with advanced solid malignancies
# Experiment: Phase 1 dose-escalation study: safety, treatment-emergent adverse events
# Assay type: in vivo
# Details: for Abdominal distension (related TEAE) / Anemia (related TEAE) / Anorexia (related TEAE) / At least 1 related TEAE / Chest discomfort (related TEAE) / Constipation (related TEAE) / Cough (related TEAE) / Dyspepsia (related TEAE) / Dyspnea (related TEAE) / Edema (related TEAE) / Face edema (related TEAE) / Fatigue (related TEAE) / Fluid retention (related TEAE) / Increased appetite (related TEAE) / Insomnia (related TEAE) / Muscle spasms (related TEAE) / Myalgia (related TEAE) / Nausea (related TEAE) / Peripheral edema (related TEAE) / Pleural effusion (related TEAE) / Rash (related TEAE) / Vomiting (related TEAE) / Weight increase (related TEAE): N = 31 patients
# [1] = Grade 3 (dose-limiting toxicity)
# [2] = Patient 20, 0.75 mg twice daily, by cycle 3, day 1, CTCAE grade 4
smiles,measurement,setting,value
Cc1cc(Oc2ccc3nc(COc4ccc(CC5SC(=O)NC5=O)cc4)n(C)c3c2)cc(C)c1N (stereo not shown) [Efatutazone],Dose-limiting toxicities,"0.10-, 0.25-, and 1.15-mg cohorts, not dose dependent",Three episodes of dose-limiting toxicities; also recorded: Three DLTs related to fluid retention
same,Patients with at least 1 treatment-related AE,31 patients,100%
same,Grade ≥4 edema,31 treated patients,No patient
same,Abdominal distension (related TEAE),Grade 1,1 (3.2) No. (%)
same,Anemia (related TEAE),Grade 1,5 (16.1) No. (%)
same,Anorexia (related TEAE),Grade 1,3 (9.7) No. (%)
same,At least 1 related TEAE,Grade 1,13 (41.9) No. (%)
same,Chest discomfort (related TEAE),Grade 1,1 (3.2) No. (%)
same,Constipation (related TEAE),Grade 1,2 (6.5) No. (%)
same,Cough (related TEAE),Grade 1,3 (9.7) No. (%)
same,Dyspepsia (related TEAE),Grade 1,2 (6.5) No. (%)
same,Dyspnea (related TEAE),Grade 1,4 (12.9) No. (%)
same,Edema (related TEAE),Grade 1,1 (3.2) No. (%)
same,Face edema (related TEAE),Grade 1,2 (6.5) No. (%)
same,Fatigue (related TEAE),Grade 1,10 (32.3) No. (%)
same,Fluid retention (related TEAE),Grade 1,2 (6.5) No. (%)
same,Increased appetite (related TEAE),Grade 1,3 (9.7) No. (%)
same,Insomnia (related TEAE),Grade 1,1 (3.2) No. (%)
same,Muscle spasms (related TEAE),Grade 1,1 (3.2) No. (%)
same,Myalgia (related TEAE),Grade 1,2 (6.5) No. (%)
same,Nausea (related TEAE),Grade 1,5 (16.1) No. (%)
same,Peripheral edema (related TEAE),Grade 1,8 (25.8) No. (%)
same,Pleural effusion (related TEAE),Grade 1,1 (3.2) No. (%)
same,Rash (related TEAE),Grade 1,2 (6.5) No. (%)
same,Vomiting (related TEAE),Grade 1,2 (6.5) No. (%)
same,Weight increase (related TEAE),Grade 1,17 (54.8) No. (%)
same,Abdominal distension (related TEAE),Grade 2,1 (3.2) No. (%)
same,Anemia (related TEAE),Grade 2,3 (9.7) No. (%)
same,Anorexia (related TEAE),Grade 2,0 No. (%)
same,At least 1 related TEAE,Grade 2,11 (35.5) No. (%)
same,Chest discomfort (related TEAE),Grade 2,0 No. (%)
same,Constipation (related TEAE),Grade 2,0 No. (%)
same,Cough (related TEAE),Grade 2,1 (3.2) No. (%)
same,Dyspepsia (related TEAE),Grade 2,0 No. (%)
same,Dyspnea (related TEAE),Grade 2,0 No. (%)
same,Edema (related TEAE),Grade 2,0 No. (%)
same,Face edema (related TEAE),Grade 2,0 No. (%)
same,Fatigue (related TEAE),Grade 2,2 (6.5) No. (%)
same,Fluid retention (related TEAE),Grade 2,1 (3.2) No. (%)
same,Increased appetite (related TEAE),Grade 2,0 No. (%)
same,Insomnia (related TEAE),Grade 2,1 (3.2) No. (%)
same,Muscle spasms (related TEAE),Grade 2,1 (3.2) No. (%)
same,Myalgia (related TEAE),Grade 2,0 No. (%)
same,Nausea (related TEAE),Grade 2,1 (3.2) No. (%)
same,Peripheral edema (related TEAE),Grade 2,7 (22.6) No. (%)
same,Pleural effusion (related TEAE),Grade 2,1 (3.2) No. (%)
same,Rash (related TEAE),Grade 2,0 No. (%)
same,Vomiting (related TEAE),Grade 2,1 (3.2) No. (%)
same,Weight increase (related TEAE),Grade 2,0 No. (%)
same,Edema (related TEAE),[1],2 (6.5) ^b No. (%)
same,Pleural effusion (related TEAE),[1],1 (3.2) ^b No. (%)
same,Abdominal distension (related TEAE),Grade 3,0 No. (%)
same,Anemia (related TEAE),Grade 3,4 (12.9) No. (%)
same,Anorexia (related TEAE),Grade 3,0 No. (%)
same,At least 1 related TEAE,Grade 3,6 (19.4) No. (%)
same,Chest discomfort (related TEAE),Grade 3,1 (3.2) No. (%)
same,Constipation (related TEAE),Grade 3,0 No. (%)
same,Cough (related TEAE),Grade 3,0 No. (%)
same,Dyspepsia (related TEAE),Grade 3,0 No. (%)
same,Dyspnea (related TEAE),Grade 3,1 (3.2) No. (%)
same,Face edema (related TEAE),Grade 3,0 No. (%)
same,Fatigue (related TEAE),Grade 3,2 (6.5) No. (%)
same,Fluid retention (related TEAE),Grade 3,0 No. (%)
same,Increased appetite (related TEAE),Grade 3,0 No. (%)
same,Insomnia (related TEAE),Grade 3,0 No. (%)
same,Muscle spasms (related TEAE),Grade 3,0 No. (%)
same,Myalgia (related TEAE),Grade 3,0 No. (%)
same,Nausea (related TEAE),Grade 3,0 No. (%)
same,Peripheral edema (related TEAE),Grade 3,1 (3.2) No. (%)
same,Rash (related TEAE),Grade 3,0 No. (%)
same,Vomiting (related TEAE),Grade 3,0 No. (%)
same,Weight increase (related TEAE),Grade 3,0 No. (%)
same,Abdominal distension (related TEAE),Grade 4,0 No. (%)
same,Anemia (related TEAE),Grade 4,0 No. (%)
same,Anorexia (related TEAE),Grade 4,0 No. (%)
same,At least 1 related TEAE,Grade 4,1 (3.2) ^a No. (%)
same,Chest discomfort (related TEAE),Grade 4,0 No. (%)
same,Constipation (related TEAE),Grade 4,0 No. (%)
same,Cough (related TEAE),Grade 4,0 No. (%)
same,Dyspepsia (related TEAE),Grade 4,0 No. (%)
same,Dyspnea (related TEAE),Grade 4,0 No. (%)
same,Edema (related TEAE),Grade 4,0 No. (%)
same,Face edema (related TEAE),Grade 4,0 No. (%)
same,Fatigue (related TEAE),Grade 4,0 No. (%)
same,Fluid retention (related TEAE),Grade 4,0 No. (%)
same,Increased appetite (related TEAE),Grade 4,0 No. (%)
same,Insomnia (related TEAE),Grade 4,0 No. (%)
same,Muscle spasms (related TEAE),Grade 4,0 No. (%)
same,Myalgia (related TEAE),Grade 4,0 No. (%)
same,Nausea (related TEAE),Grade 4,0 No. (%)
same,Peripheral edema (related TEAE),Grade 4,0 No. (%)
same,Pleural effusion (related TEAE),Grade 4,0 No. (%)
same,Rash (related TEAE),Grade 4,0 No. (%)
same,Vomiting (related TEAE),Grade 4,0 No. (%)
same,Weight increase (related TEAE),Grade 4,0 No. (%)
same,Abdominal distension (related TEAE),Overall,2 (6.5) No. (%)
same,Anemia (related TEAE),Overall,12 (38.7) No. (%)
same,Anorexia (related TEAE),Overall,3 (9.7) No. (%)
same,At least 1 related TEAE,Overall,31 (100) No. (%)
same,Chest discomfort (related TEAE),Overall,2 (6.5) No. (%)
same,Constipation (related TEAE),Overall,2 (6.5) No. (%)
same,Cough (related TEAE),Overall,4 (12.9) No. (%)
same,Dyspepsia (related TEAE),Overall,2 (6.5) No. (%)
same,Dyspnea (related TEAE),Overall,5 (16.1) No. (%)
same,Edema (related TEAE),Overall,3 (9.7) No. (%)
same,Face edema (related TEAE),Overall,2 (6.5) No. (%)
same,Fatigue (related TEAE),Overall,14 (45.2) No. (%)
same,Fluid retention (related TEAE),Overall,3 (9.7) No. (%)
same,Increased appetite (related TEAE),Overall,3 (9.7) No. (%)
same,Insomnia (related TEAE),Overall,2 (6.5) No. (%)
same,Muscle spasms (related TEAE),Overall,2 (6.5) No. (%)
same,Myalgia (related TEAE),Overall,2 (6.5) No. (%)
same,Nausea (related TEAE),Overall,6 (19.4) No. (%)
same,Peripheral edema (related TEAE),Overall,16 (51.6) No. (%)
same,Pleural effusion (related TEAE),Overall,3 (9.7) No. (%)
same,Rash (related TEAE),Overall,2 (6.5) No. (%)
same,Vomiting (related TEAE),Overall,3 (9.7) No. (%)
same,Weight increase (related TEAE),Overall,17 (54.8) No. (%)
same,"Serum cholesterol, peak",[2],515 mg/dL
same,"Serum triglycerides, peak",[2],4525 mg/dL
same,Cardiac dysfunction (serial electrocardiograms and echocardiograms),all dose levels,did not reveal any evidence of cardiac dysfunction; also recorded: no measurable cardiotoxicity
same,Patients with anemia (treatment-related AE),all dose levels,38.7%
same,Patients with fatigue (treatment-related AE),all dose levels,45.2%
same,Patients with peripheral edema,all dose levels,51.6%
same,Patients with weight increase (treatment-related AE),all dose levels,54.8%
same,Maximum tolerated dose (MTD),doses 0.10 to 1.15 mg PO twice daily,not reached
same,Patients with grade 4 TEAEs,regardless of attribution (bronchospasm; hypercholesterolemia and hypertriglyceridemia),Two patients
